# Key:
# PDGF = assay: SRE-luciferase antagonist assay, induction by PDGF; type: cell-based; conditions: Swiss-3T3, SWISS3T3 cells, 5 hours, approximate
# Excerpt: (§1) Initial characterization of NNC92-0270 as a non-peptide PDGF antagonist was made possible through an SRE-Luciferase high through-put assay system which involves selection of substances that are able to block expression of a serum response element (SRE)-luciferase reporter gene expressed in SWISS3T3 cells. […] The degree of antagonist specificity can be determined by comparing the resultant signal for the three growth factors (PDGF, bFGF and EGF). […]
# (§2) Following induction, luciferase activity was measured using a Promega luciferase assay kit (E1500; Promega Corp., Madison, Wis.) according to the assay kit protocol. […] The amount of luminescence (relative light units, RLU) was determined following a 1 second mix and a 1-3 integration of signal. Basal (uninduced) luciferase signal was subtracted from all measurements, and the luciferase signal induced by test samples was expressed as a percentage of the signal in the control. […]
# bFGF = assay: SRE-luciferase antagonist assay, induction by bFGF; type: cell-based; conditions: Swiss-3T3, SWISS3T3 cells, 5 hours, approximate
# Excerpt: as §1, §2
smiles,measurement,setting,value
O=C(NN1CCCCC1)NS(=O)(=O)c1ccc(CCNC(=O)c2[nH]c3ccccc3c2OCc2ccccc2)cc1 [NNC92-0270],IC50,PDGF,13 µM
same,IC50,bFGF,> 100 µM

# From patent US5731326A, “PDGF antagonists II” (ZymoGenetics, Inc., priority 1996, dated 1998)
